Assay results from the NIST ThermoML archive (doi:10.1016/j.fluid.2012.03.025).

Columns and labels:
[1] = xn = mol fraction of the nth substance listed; details: 298.15 K, 101 kPa, Liquid, Vibrating tube method
[2] = refractive index (Na D-line) (dimensionless); xn = mol fraction of the nth substance listed; details: 298.15 K, 101 kPa, Liquid, Standard Abbe refractometry
[3] = Crystal

CCCCCCC(C)O (stereo unspecified) [2-octanol] + CCCCCCCCO
Details	mass density, [1] [kg/m3]	refractive index, [2]
x2 = 0	816.49	1.4243
x2 = 0.0403	816.8	1.4246
x2 = 0.0812	817.11	1.4247
x2 = 0.1657	817.65	1.425
x2 = 0.2539	818.13	1.4253
x2 = 0.3458	818.63	1.4255
x2 = 0.4421	819.16	1.4259
x2 = 0.5431	819.71	1.4262
x2 = 0.649	820.28	1.4265
x2 = 0.7603	820.85	1.4268
x2 = 0.8771	821.36	1.4272
x2 = 0.9375	821.61	1.4273

CCCCCCC(C)O (stereo unspecified) [2-octanol] + CCCCCCCCCCCCN(CCCCCCCCCCCC)CCCCCCCCCCCC
x2 = 0
Details	mass density [kg/m3]	refractive index
[1]	816.49	–
[2]	–	1.4244

CCCCCCCCCCCCN(CCCCCCCCCCCC)CCCCCCCCCCCC [tridodecylamine] + CCCCCCC(C)O
Details	mass density, [1] [kg/m3]	refractive index, [2]
x1 = 0.0526	816.69	1.4296
x1 = 0.1042	816.97	1.4336
x1 = 0.2072	817.55	1.4396
x1 = 0.31	818.03	1.4436
x1 = 0.4111	818.41	1.4465
x1 = 0.5114	818.68	1.4486
x1 = 0.6109	818.88	1.4503
x1 = 0.7083	819.04	1.4516
x1 = 0.805	819.15	1.4528
x1 = 0.9037	819.22	1.4537
x1 = 0.9524	819.24	1.4541
x1 = 1	819.23	1.4546

CCCCCCCCO [octan-1-ol] + CCCCCCCCCCCCN(CCCCCCCCCCCC)CCCCCCCCCCCC
x2 = 0
Details	mass density [kg/m3]	refractive index
[1]	821.76	–
[2]	–	1.4275

CCCCCCCCCCCCN(CCCCCCCCCCCC)CCCCCCCCCCCC [tridodecylamine]
Details	Normal melting temperature [°C]
[3]	16.1

CCCCCCCCCCO [decan-1-ol] + CCCCCCCCCCCCN(CCCCCCCCCCCC)CCCCCCCCCCCC
x2 = 0
Details	mass density [kg/m3]	refractive index
[1]	826.59	–
[2]	–	1.4354

CCCCCCCCCCCCN(CCCCCCCCCCCC)CCCCCCCCCCCC [tridodecylamine] + CCCCCCCCO
Details	mass density, [1] [kg/m3]	refractive index, [2]
x1 = 0.0652	821.91	1.4337
x1 = 0.1282	821.75	1.438
x1 = 0.2477	821.37	1.4434
x1 = 0.3616	820.95	1.4468
x1 = 0.469	820.67	1.4491
x1 = 0.5695	820.41	1.4506
x1 = 0.6684	820.15	1.4519
x1 = 0.7531	819.94	1.4528
x1 = 0.8438	819.65	1.4535
x1 = 0.9238	819.4	1.4541
x1 = 0.9643	819.29	1.4544
x1 = 1	819.23	1.4546

CCCCCCCCO [octan-1-ol] + CCCCCCC(C)O
x1 = 1
Details	mass density [kg/m3]	refractive index
[1]	821.76	–
[2]	–	1.4275

CCCCCCC(C)O (stereo unspecified) [2-octanol] + CCCCCCCCCCO
Details	mass density, [1] [kg/m3]	refractive index, [2]
x1 = 0.0505	826.1	1.4349
x1 = 0.1001	825.65	1.4344
x1 = 0.1998	824.82	1.4334
x1 = 0.2999	824.02	1.4325
x1 = 0.4006	823.14	1.4315
x1 = 0.5001	822.18	1.4304
x1 = 0.6	821.17	1.4293
x1 = 0.6999	820.13	1.4281
x1 = 0.7995	819.04	1.427
x1 = 0.8998	817.86	1.4257
x1 = 0.95	817.21	1.4251
x1 = 1	816.49	1.4244

CCCCCCCCCCO [decan-1-ol] + CCCCCCC(C)O
x2 = 0
Details	mass density [kg/m3]	refractive index
[1]	826.59	–
[2]	–	1.4354

CCCCCCCCCCCCN(CCCCCCCCCCCC)CCCCCCCCCCCC [tridodecylamine] + CCCCCCCCCCO
Details	mass density, [1] [kg/m3]	refractive index, [2]
x1 = 0.0522	825.92	1.4385
x1 = 0.104	825.24	1.4409
x1 = 0.2071	824.17	1.4448
x1 = 0.3096	823.37	1.447
x1 = 0.4117	822.57	1.4493
x1 = 0.5112	821.93	1.4506
x1 = 0.6117	821.35	1.4519
x1 = 0.7097	820.82	1.4528
x1 = 0.8078	820.35	1.4535
x1 = 0.9041	819.86	1.4541
x1 = 0.9534	819.53	1.4544
x1 = 1	819.23	1.4546
